# Test results from paper PMC7483518, “Destabilizing single chain major histocompatibility complex class I protein for repurposed enterokinase proteolysis” (Scientific Reports, 2020).
# Read-outs that look alike come from different tables or passages of the source.
# Key:
# [1] = target: photolabile unchained HLA-A*11:01 pMHC-I protein (Homo sapiens, UniProt P04439, A114D/D185E/E176A/F33Y/L180Q/S129P/T187R); test: ELISA with photolabile unchained pMHC-I protein and UV irradiation; type: binding; settings: for ELISA450nm: Table 2, 62.5 nM photolabile pMHC-I mixture, 5 μM peptide in PBS, UV 365 nm 2 × 5 min on ice, 2 h room temperature on anti-β2m plate, Abs450nm − Abs570nm, instability cutoff < 0.6
# [2] = tested on: HLA-A*11:01 single chain protein; type: biochemical, Human; set-up: EZ50kDa / EZ50kD (pH 6.2) / EZ50kD (pH 8) / EZ50kD (normalised: EBV1101 = 1, EBV0201 = 0) / EZ50kDa rank: unit not given beside the values; settings: for EZ50kDa rank: HLA-A*11:01 single chain protein, 9-mer peptides;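 for EZ50kD (pH 6.2): scaled with positive control peptide as 1 and negative control peptide as 0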
# [3] = EASY MHC-I A*11:01, 2019-07-25, mean of the 2 replicates
# [4] = EASY MHC-I A*11:01, gel 2019-07-17 lr1028-1036 5min, mean of 2 replicates
# [5] = EASY MHC-I A*11:01, gel 2019-07-17 lr1028-1036 5min, replicate 1 (lanes 1-14)
# [6] = EASY MHC-I A*11:01, gel 2019-07-17 lr1028-1036 5min, replicate 2 (lanes 15-28)
# [7] = EASY MHC-I A*11:01, gel 2019-07-23 lr1037_1045_5min, replicate 1 (first lane set)
# [8] = EASY MHC-I A*11:01, gel 2019-07-23 lr1037_1045_5min, replicate 2 (second lane set)
molecule,measurement,setting,value
Nc1nc(Nc2ccc3c(c2)CC[C@@H](N2CCCC2)CC3)nn1-c1cc2c(nn1)-c1ccccc1CCC2 [CS1046],EASY_mean,"[1]; […], mean, STDEV",-0.001122
AIKTSPKA [EX1001],EZ_mean,[2],-0.04572
same,EASY_mean,[1],-0.01453
AIKTSPKAN [EX1006],EZ_mean,[2]; [3],-0.02264
same,EASY_mean,"[1]; […], mean, STDEV",0.003202
"AIKTSPKANK [EX1012, EGFR exon 19 deletion-derived peptide]",EZ_mean,[2]; [3],-0.007078
same,EASY_mean,"[1]; […], mean, STDEV",0.01176
AIKTSPKANKE [EX1019],EZ_mean,"[2]; EASY MHC-I A*11:01, 2019-07-26, mean of the 2 replicates",-0.09791
same,EASY_mean,"[1]; […], mean, STDEV",0.001081
AIKTSPKANKEI [EX1027],EZ_mean,"[2]; EASY MHC-I A*11:01, 2019-08-01, mean of the 2 replicates",-0.13
same,EASY_mean,[1],-0.02114
AINSEMFLR [reference compound],EZ50kDa rank,"[2]; pH 6.2, 37 °C",0.901
same,EZ50kD (pH 6.2),[2]; pH 6.2,0.9012
same,EZ50kD (pH 8),[2],1.19
ATVLMGLGK [reference compound],EZ50kD (pH 6.2),"[2]; Table 2, pH 6.2, 37 °C, enterokinase, Eq. (4), instability cutoff < 0.3",1.039
same,ELISA450nm,[1],1.911
ATVQGQNLK [reference compound],EZ50kD (pH 6.2),[2]; pH 6.2,0.8968
same,EZ50kD (pH 8),[2],0.767
ATYGWNLVK [reference compound],EZ50kD (pH 6.2),[2]; pH 6.2,0.8706
same,EZ50kD (pH 8),[2],1.994
AVQTKPGLFK [reference compound],EZ50kD (pH 6.2),[2]; pH 6.2,0.955
same,EZ50kD (pH 8),[2],1.546
CLTSTVQLIM [TM1018],EZ_mean,"[2]; EASY MHC-I A*11:01, run 2019-08-07, 5min, mean of 2 replicates",-0.01698
same,EASY_mean,"[1]; […], mean, STDEV",0.01464
CLTSTVQLIMQ [TM1029],EZ_mean,[2],-0.1239
same,EASY_mean,"[1]; ELISA signal, mean, […]",-0.0718
CLTSTVQLIMQL [TM1040],EZ_mean,[2],-0.1197
same,EASY_mean,"[1]; ELISA signal, mean, […]",-0.0545
DFGRAKLL [LR1005],EZ_mean,[2],-0.05649
same,EASY_mean,"[1]; ELISA signal, mean, […]",-0.01718
DFGRAKLLG [LR1014],EZ_mean,[2],-0.05414
same,EASY_mean,"[1]; ELISA signal, mean, […]",-0.02793
DFGRAKLLGA [LR1024],EZ_mean,[2],-0.06389
same,EASY_mean,"[1]; ELISA signal, mean, […]",-0.02296
DFGRAKLLGAE [LR1035],EZ_mean,[2]; [4],-0.0623
same,"EZ50kD (normalised: EBV1101 = 1, EBV0201 = 0)",[2]; [5],-0.08387
same,"Norm (50 kDa band adj. volume normalised: Undig_37C = 1, Dig_37C = 0)",[2]; [5],-0.0751
same,"EZ50kD (normalised: EBV1101 = 1, EBV0201 = 0)",[2]; [6],-0.04073
same,"Norm (50 kDa band adj. volume normalised: Undig_37C = 1, Dig_37C = 0)",[2]; [6],-0.03413
same,EASY_mean,[1],-0.05461
DFGRAKLLGAEE [LR1047],EZ_mean,[2],-0.04163
same,EASY_mean,[1],-0.01199
DLAQCFFCFK [reference compound],ELISA450nm,[1],0.3956
FGRAKLLG [LR1006],EZ_mean,[2],-0.05388
same,EASY_mean,"[1]; ELISA signal, mean, […]",-0.01563
FGRAKLLGA [LR1015],EZ_mean,[2],-0.04617
same,EASY_mean,"[1]; […], mean, STDEV",-0.02405
FGRAKLLGAE [LR1025],EZ_mean,[2],-0.04476
same,EASY_mean,"[1]; ELISA signal, mean, […]",-0.01153
FGRAKLLGAEE [LR1036],EZ_mean,[2]; [4],-0.05281
same,"EZ50kD (normalised: EBV1101 = 1, EBV0201 = 0)",[2]; [5],-0.07114
same,"Norm (50 kDa band adj. volume normalised: Undig_37C = 1, Dig_37C = 0)",[2]; [5],-0.06733
same,"EZ50kD (normalised: EBV1101 = 1, EBV0201 = 0)",[2]; [6],-0.03448
same,"Norm (50 kDa band adj. volume normalised: Undig_37C = 1, Dig_37C = 0)",[2]; [6],-0.02973
same,EASY_mean,[1],-0.04853
FGRAKLLGAEEK [LR1048],EZ_mean,[2],-0.03879
same,EASY_mean,[1],-0.01082
FGSLLDYV [CS1006],EZ_mean,[2],-0.06948
same,EASY_mean,[1],-0.03548
FGSLLDYVR [CS1015],EZ_mean,[2],-0.05849
same,EASY_mean,[1],-0.01602
FGSLLDYVRE [CS1025],EZ_mean,[2],-0.05956
same,EASY_mean,[1],0.005114
FGSLLDYVREH [CS1036],EZ_mean,[2],0.04199
same,EZ50kDa,"[2]; Table 3, EGFR peptide library (n = 177, duplicated), pH 6.2, 37 °C, 14 h, enterokinase, Eq. (4)",0.0420 ± 0.010
same,EASY_mean,[1],0.0933
FIDSYICQV [reference compound],ELISA450nm,[1],0.3491
FLLTKILTI [reference compound],ELISA450nm,[1],0.1791
FTNDSIISH [reference compound],EZ50kDa rank,"[2]; pH 6.2, 37 °C",0.696
same,EZ50kD (pH 6.2),[2]; pH 6.2,0.6961
same,EZ50kD (pH 8),[2],0.1339
GAMLFLISGK [reference compound],EZ50kD (pH 6.2),[2]; pH 6.2,0.7468
same,EZ50kD (pH 8),[2],1.036
GLSPTVWLSA [reference compound],ELISA450nm,[1],0.2488
GRAKLLGA [LR1007],EZ_mean,[2],-0.06438
same,EASY_mean,"[1]; ELISA signal, mean, […]",-0.02108
GRAKLLGAE [LR1016],EZ_mean,[2],-0.03777
same,EASY_mean,"[1]; ELISA signal, mean, […]",-0.02066
GRAKLLGAEE [LR1026],EZ_mean,[2],-0.04989
same,EASY_mean,"[1]; […], mean, STDEV",-0.01509
GRAKLLGAEEK [LR1037],EZ_mean,"[2]; EASY MHC-I A*11:01, gel 2019-07-23 lr1037_1045_5min, mean of 2 replicates",-0.05993
same,"EZ50kD (normalised: EBV1101 = 1, EBV0201 = 0)",[2]; [7],-0.04549
same,"Norm (50 kDa band adj. volume normalised: Undig_37C = 1, Dig_37C = 0)",[2]; [7],-0.01318
same,"EZ50kD (normalised: EBV1101 = 1, EBV0201 = 0)",[2]; [8],-0.07437
same,"Norm (50 kDa band adj. volume normalised: Undig_37C = 1, Dig_37C = 0)",[2]; [8],0.01353
same,EASY_mean,[1],0.0001747
GRAKLLGAEEKE [LR1049],EZ_mean,[2],-0.05058
same,EASY_mean,[1],-0.01715
GSLLDYVR [CS1007],EZ_mean,[2],-0.06759
same,EASY_mean,[1],-0.02696
GSLLDYVRE [CS1016],EZ_mean,[2],-0.06376
same,EASY_mean,[1],-0.02695
